# Source: US7507727B2, “Substituted quinobenzoxazine analogs and methods of using thereof” (Cylene Pharmaceuticals, Inc., priority 2003, dated 2009)
# Target: c-Myc template DNA (c-myc quadruplex)
# Experiment: Quadruplex binding / stop assay (Taq polymerase arrest, capillary electrophoresis)
# Settings: read-out: S DATA; Table 1D, stop assay data
row,IC50,SMILES
1,> 15 µM,CN(C)CCCCNC(=O)c1cn2c3c(c(NCCCN4CCN(C)CC4)c(F)cc3c1=O)Oc1ccccc1-2 [compound 1578]
2,> 15 µM,CN1CCCC1CCNC(=O)c1cn2c3c(c(N4CCC(NC(=O)OC(C)(C)C)C4)c(F)cc3c1=O)Oc1ccccc1-2 (centres unmarked) [compound 1587]
3,> 15 µM,O=C(c1cn2c3c(c(NCCN4CCCC4)c(F)cc3c1=O)Oc1ccccc1-2)N1CCC(N2CCCC2)CC1 [compound 1601]
4,> 15 µM,CC(C)N1CCN(c2c(F)cc3c(=O)c(C(=O)NC4CC(C)(C)NC(C)(C)C4)cn4c3c2Oc2ccccc2-4)CC1 [compound 1571]
5,> 15 µM,CN1CCN(CCCNc2c(F)cc3c(=O)c(C(=O)NCCCN4CCOCC4)cn4c3c2Oc2ccccc2-4)CC1 [compound 1572]
6,> 15 µM,CN1CCN(CCCNC(=O)c2cn3c4c(c(NCCN5CCOCC5)c(F)cc4c2=O)Oc2ccccc2-3)CC1 [compound 1606]
7,> 15 µM,CN1CCN(CCCNc2c(F)cc3c(=O)c(C(=O)N4CCC(N5CCCC5)CC4)cn4c3c2Oc2ccccc2-4)CC1 [compound 1581]
8,1.75 µM,O=C(NCCN1CCCC1)c1cn2c3c(c(NCCCN4CCOCC4)ccc3c1=O)Oc1cc3ccccc3cc1-2 [compound 1528]
9,> 15 µM,NC1CCN(c2c(F)cc3c(=O)c(C(=O)NCCN4CCOCC4)cn4c3c2Oc2ccccc2-4)C1 (centres unmarked) [compound 1620]
10,> 15 µM,CN1CCN(CCCNc2c(F)cc3c(=O)c(C(=O)N4CCN(C)CC4)cn4c3c2Oc2ccccc2-4)CC1 [compound 1582]
11,10 µM,COCC(=O)N1CCN(c2c(F)cc3c(=O)c(C(=O)NCCN4CCCC4)cn4c3c2Oc2cc(Cl)ccc2-4)CC1 [compound 1825]
12,> 15 µM,CC(C)(C)OC(=O)NC1CCN(c2c(F)cc3c(=O)c(C(=O)NCCCN4CCOCC4)cn4c3c2Oc2ccccc2-4)C1 (centres unmarked) [compound 1583]
13,0.75 µM,CN(C)CCCCNC(=O)c1cn2c3c(c(NCCCN4CCN(C)CC4)ccc3c1=O)Oc1cc3ccccc3cc1-2 [compound 1555]
14,7.2 µM,O=C(NCCN1CCCC1)c1cn2c3c(c(NCCN4CCOCC4)c(F)cc3c1=O)Oc1cc(Cl)ccc1-2 [compound 1814]
15,10 µM,CCC(=O)N1CCN(c2c(F)cc3c(=O)c(C(=O)NCCN4CCCC4)cn4c3c2Oc2cc(Cl)ccc2-4)CC1 [compound 1822]
16,> 15 µM,CC(C)N1CCN(c2c(F)cc3c(=O)c(C(=O)NCCCN4CCOCC4)cn4c3c2Oc2ccccc2-4)CC1 [compound 1561]

# Further lines, the molecule ahead of its results:
row,SMILES,IC50
1,CN(C)CCCCNC(=O)c1cn2c3c(c(NCCCCN(C)C)ccc3c1=O)Oc1cc3ccccc3cc1-2 [compound 1544],1.75 µM
2,CN1CCCC1CCNC(=O)c1cn2c3c(c(SCCc4cnccn4)c(F)cc3c1=O)Oc1cc3ccccc3cc1-2 (centres unmarked) [compound 1760],1.85 µM
3,NC1CCN(c2c(F)cc3c(=O)c(C(=O)NCCc4ccc(O)cc4)cn4c3c2Oc2cc3ccccc3cc2-4)C1 (centres unmarked) [compound 1707],> 15 µM
4,CN1CCCC1CCNC(=O)c1cn2c3c(c(N4CCC(C(N)=O)CC4)c(F)cc3c1=O)Oc1cc3ccccc3cc1-2 (centres unmarked) [compound 1493],1.75 µM
5,CC1CCCC(C)N1CCCNC(=O)c1cn2c3c(c(N4CCC(N)C4)c(F)cc3c1=O)Oc1cc3ccccc3cc1-2 (centres unmarked) [compound 1713],0.75 µM
6,CN1CCCC1CCNC(=O)c1cn2c3c(c(NCc4ccccc4N4CCOCC4)c(F)cc3c1=O)Oc1cc3ccccc3cc1-2 (centres unmarked) [compound 1511],1.75 µM
7,NC1CCN(c2c(F)cc3c(=O)c(C(=O)NCC(O)c4ccccc4)cn4c3c2Oc2cc3ccccc3cc2-4)C1 (centres unmarked) [compound 1703],> 15 µM
8,CN1CCCC1CCNC(=O)c1cn2c3c(c(N4CCC(n5c(=O)[nH]c6ccccc65)CC4)c(F)cc3c1=O)Oc1cc3ccccc3cc1-2 (centres unmarked) [compound 1477],1 µM
9,CCN(CC)CCCC(C)NC(=O)c1cn2c3c(c(N4CCC(c5cnccn5)C4)ccc3c1=O)Oc1ccccc1-2 (centres unmarked) [compound 1721],3 µM
10,O=C(NCCC1CCCN1)c1cn2c3c(c(NCCN4CCCC4)ccc3c1=O)Oc1cc3ccccc3cc1-2 (centres unmarked) [compound 1516],1.75 µM
11,CCOC(=O)c1cn2c3c(c(N4CCN(C(C)=O)CC4)c(F)cc3c1=O)Oc1cc(Cl)ccc1-2 [compound 1806],> 15 µM
12,CN1CCCC1CCNC(=O)c1cn2c3c(c(SCCc4cnccn4)c(F)cc3c1=O)Oc1ccccc1-2 (centres unmarked) [compound 1779],> 15 µM
13,O=C(O)c1cn2c3c(c(NCC4CCCO4)c(F)cc3c1=O)Oc1cc3ccccc3cc1-2 (centres unmarked) [compound 1740],8.5 µM
14,CN1CCCC1CCNC(=O)c1cn2c3c(c(N4C[C@@H](NC(=O)OC(C)(C)C)[C@H](c5ccccc5)C4)c(F)cc3c1=O)Oc1cc3ccccc3cc1-2 (some centres unmarked) [compound 1514],> 15 µM
15,C[C@@H](O)CNc1c(F)cc2c(=O)c(C(=O)NCCC3CCCN3C)cn3c2c1Oc1cc2ccccc2cc1-3 (some centres unmarked) [compound 1682],0.75 µM
16,CN1CCCC1CCNC(=O)c1cn2c3c(c(SCCc4cnccn4)c(F)cc3c1=O)Oc1c-2ccc2ccccc12 (centres unmarked) [compound 1780],5.2 µM
17,CN(C)CCCCNc1ccc2c(=O)c(C(=O)NCCN3CCOCC3)cn3c2c1Oc1cc2ccccc2cc1-3 [compound 1545],0.75 µM
18,NC1CCN(c2c(F)cc3c(=O)c(C(=O)NCC4CCCO4)cn4c3c2Oc2cc3ccccc3cc2-4)C1 (centres unmarked) [compound 1693],> 15 µM
19,CN1CCCC1CCNC(=O)c1cn2c3c(c(N(C)C4CCNC4)c(F)cc3c1=O)Oc1cc3ccccc3cc1-2 (centres unmarked) [compound 1502],0.75 µM

# Same assay, conditions: read-out: Stop Data c-Myc μM; concentration at which 50% of the DNA was arrested (arrested:full-length 1:1)
row,IC50,SMILES
1,1.75 µM,Nc1c(F)c(NCCCN2CCOCC2)c2c3c1c(=O)c(C(=O)N1CCC(N)C1)cn3-c1cc3ccccc3cc1O2 (centres unmarked) [compound 232]
2,2.5 µM,CC(C)(C)OC(=O)N[C@@H]1CCN(c2c(F)cc3c(=O)c(C(=O)NCCCN4CCOCC4)cn4c3c2Oc2cc3ccccc3cc2-4)C1 [compound 62]
3,2.5 µM,CN1CCCC1CCNc1c(F)cc2c(=O)c(C(=O)N3CC[C@@H](N)C3)cn3c2c1Oc1c-3ccc2ccccc12 (some centres unmarked) [compound 85]
4,1.75 µM,O=C(NCCCN1CCOCC1)c1cn2c3c(c(NCCN4CCCC4)c(F)cc3c1=O)Oc1c-2ccc2ccccc12 [compound 137]
5,1.75 µM,O=C(c1cn2c3c(c(NC4CCNC4)c(F)cc3c1=O)Oc1cc3ccccc3cc1-2)N1CCOCC1 (centres unmarked) [compound 116]
6,1 µM,CN(C)CCCCNc1c(F)cc2c(=O)c(C(=O)NCCN3CCCC3)cn3c2c1Oc1cc2ccccc2cc1-3 [compound 318]
7,1.75 µM,Nc1c(F)c(NCCCN2CCOCC2)c2c3c1c(=O)c(C(=O)NCCCN1CCOCC1)cn3-c1cc3ccccc3cc1O2 [compound 218]
8,1.75 µM,CN1CCCC1CCNC(=O)c1cn2c3c(c(N)c(F)c(NCCCN4CCOCC4)c3c1=O)Oc1cc3ccccc3cc1-2 (centres unmarked) [compound 191]
9,1 µM,N=C(N)NCC1CCCC(CNC(=O)c2cn3c4c(c(NCCCN5CCOCC5)c(F)cc4c2=O)Oc2cc4ccccc4cc2-3)C1 (centres unmarked) [compound 331]
10,1 µM,CN(C)CCCCNC(=O)c1cn2c3c(c(NCCN4CCCC4)c(F)cc3c1=O)Oc1cc3ccccc3cc1-2 [compound 317]
11,1.75 µM,CN1CCCC1CCNc1ccc2c(=O)c(C(=O)NCCCN3CCOCC3)cn3c2c1Oc1cc2ccccc2cc1-3 (centres unmarked) [compound 269]
12,2.5 µM,CC(C)(C)OC(=O)N[C@@H]1CCN(C(=O)c2cn3c4c(c(NCCCN5CCOCC5)c(F)cc4c2=O)Oc2cc4ccccc4cc2-3)C1 [compound 50]
13,1.75 µM,CN(C)CCCCNC(=O)c1cn2c3c(c(NCCN4CCCC4)c(F)cc3c1=O)Oc1cc3c(cc1-2)oc1ccccc13 [compound 161]

# Second part, the molecule before the results:
row,SMILES,IC50
1,CN(C)CCCCNC(=O)c1cn2c3cc4c(cc3oc3c(NCCN5CCOCC5)c(F)cc(c1=O)c32)c(=O)c1ccccc14 [compound 490],0.5 µM
2,NC1CCN(c2c(F)cc3c(=O)c(C(=O)NCc4ccccc4N4CCCCC4)cn4c3c2Oc2cc3ccccc3cc2-4)C1 (centres unmarked) [compound 247],1.75 µM
3,CN1CCCC1CCNc1c(F)cc2c(=O)c(C(=O)O)cn3c4cc5oc6cc(N)ccc6[nH]c5cc4oc1c23 (centres unmarked) [compound 20],0.75 µM
4,NC1CCN(c2c(F)cc3c(=O)c(C(=O)NCC(O)CO)cn4c3c2Oc2cc3ccccc3cc2-4)C1 (centres unmarked) [compound 300],1.75 µM
5,CN1CCN(C(=O)c2cn3c4cc5c(=O)c6ccccc6c(=O)c5cc4oc4c(N5CCC(N)C5)c(F)cc(c2=O)c43)CC1 (centres unmarked) [compound 92],2.5 µM
6,CN(C)CCCCNC(=O)c1cn2c3cc4c(=O)c5ccccc5c(=O)c4cc3oc3c(NCCC4CCCN4C)c(F)cc(c1=O)c32 (centres unmarked) [compound 347],0.9 µM
7,Nc1c(F)c(F)c2c3c1c(=O)c(C(=O)O)cn3-c1cc3ccccc3cc1O2 [compound 13],1.75 µM
8,CN1CCCC1CCNC(=O)c1cn2c3c(c(N4CCC(C(N)=O)CC4)c(F)cc3c1=O)Oc1cc3ccccc3cc1-2 (centres unmarked) [compound 261],1.75 µM
9,NC1CCN(C(=O)c2cn3c4cc5c(=O)c6ccccc6c(=O)c5cc4oc4c(N5CCC(N)C5)c(F)cc(c2=O)c43)C1 (centres unmarked) [compound 499],0.4 µM
10,CN(C)CCCCNC(=O)c1cn2c3c(c(N4CCC(N)C4)ccc3c1=O)Oc1cc3ccccc3cc1-2 (centres unmarked) [compound 589],0.18 µM
11,CN(CCc1ccccn1)C(=O)c1ccc2c(c1)Oc1c(NCCCn3ccnc3)c(F)cc3c(=O)c(C(=O)N(C)CCc4ccccn4)cn-2c13 [compound 39],2.5 µM
12,CC(C)(C)OC(=O)N[C@@H]1CCN(c2c(F)cc3c(=O)c(C(=O)NCCN4CCCC4)cn4c3c2Oc2cc3ccccc3cc2-4)C1 [compound 121],1.75 µM
13,CC(C)(C)OC(=O)NC1CCN(c2c(F)cc3c(=O)c(C(=O)NCCc4ccc(N)cc4)cn4c3c2Oc2cc3ccccc3cc2-4)C1 (centres unmarked) [compound 183],1.75 µM
14,N[C@H]1CCN(C(=O)c2cn3c4cc5c(cc4oc4c(NCCCN6CCOCC6)c(F)cc(c2=O)c43)c(=O)c2ccccc25)C1 [compound 216],1.75 µM
15,CN1CCCC1CCNC(=O)c1cn2c3c(c(N)c(F)c(N4CC[C@H](N)C4)c3c1=O)Oc1cc3ccccc3cc1-2 (some centres unmarked) [compound 189],1.75 µM
16,CN(CCc1ccccn1)C(=O)c1cn2c3c(c(N4CC[C@@H](N)C4)c(F)cc3c1=O)Oc1c-2ccc2ccccc12 [compound 80],2.5 µM
17,CN1CCC[C@H]1CCNC(=O)c1cn2c3c(c(N4CCC(c5cnccn5)C4)c(F)cc3c1=O)Oc1cc3ccccc3cc1-2 (some centres unmarked) [compound 355],0.89 µM
